Here are results for five compounds from patent publication US20110086836A1, “Substituted Phenylpiperidine Derivatives As Melanocortin-4 Receptor Modulators” (Santhera Pharmaceuticals (Schweiz) AG, priority 2006, published 2011).

For assay [1], the target named is T1, human melanocortin-4 receptor (hMC-4R) (Homo sapiens, UniProt P32245).
T1 construct: expressed in transfected cells; host or cells: HEK293 (membrane preparations)
Description: hMC-4R binding assay (fluorescence polarization, competition with fluorescence labeled NDP-alpha-MSH). As to conditions: HEK293 cell membrane preparations expressing human melanocortin receptors. The procedure:
The plate is incubated for 5 h at room temperature.
The degree of fluorescence polarization is determined with a fluorescence polarization microplate reader.
(In general: Polarisation of emitted light reports the rotation of a fluorescent probe.)

Assay [2] has as its target T1, human melanocortin-4 receptor (hMC-4R). Description: hMC-4R functional assay (membrane based cAMP fluorescence polarization). Also on record: concentration or dose not given beside the values. As to conditions: cAMP produced compared to stimulation with NDP-alpha-MSH. The class given is biochemical. The procedure:
Agonistic activity of human melanocortin receptors is determined in a homogeneous membrane based assay.
Membrane preparations from HEK293 cells expressing the human melanocortin receptors are added. After a short preincubation period, an appropriate amount of ATP, GTP and the cAMP antibody is added and the plate is further incubated before the fluorescence labeled cAMP conjugate is dispensed. The plate is incubated for 2 h at 4° C. before it is read on a fluorescence polarization microplate reader.

The structures appear in SMILES notation.

T1 sequence (P32245 whole entry): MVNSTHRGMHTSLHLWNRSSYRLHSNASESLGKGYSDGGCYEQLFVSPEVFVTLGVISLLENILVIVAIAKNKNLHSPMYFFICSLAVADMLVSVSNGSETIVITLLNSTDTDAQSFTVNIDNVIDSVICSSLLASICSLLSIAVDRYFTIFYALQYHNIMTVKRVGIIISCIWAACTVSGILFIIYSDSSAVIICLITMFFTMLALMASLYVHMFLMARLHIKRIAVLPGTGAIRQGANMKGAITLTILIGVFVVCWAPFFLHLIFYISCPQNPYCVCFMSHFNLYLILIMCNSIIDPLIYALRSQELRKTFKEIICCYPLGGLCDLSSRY

`O=C(N[C@H](Cc1ccc(Cl)cc1Cl)C(=O)N1CCC(c2ccccc2OCCN2CCCC2)CC1)N1CCCC1` [Example 2] came in with an IC50 in assay [1] of 3.7 nM. The “% activation functional assay” value in assay [2] is recorded as 0%.
In the case of `O=C(N[C@H](Cc1ccc(Cl)cc1Cl)C(=O)N1CCC(c2ccccc2CCN2CCC(F)CC2)CC1)N1CCCC1` [Example 36], in assay [1], the IC50 came out at 9.6 nM. Also, in assay [2], the “% activation functional assay” value was 0%.
In the same order, the values of `O=C(N[C@H](Cc1ccc(Cl)cc1Cl)C(=O)N1CCC(c2ccccc2CCCN2CCCC2)CC1)N1CCOCC1` [Example 95] are 5.3 nM and 0%.
For `O=C(N[C@H](Cc1ccc(Cl)cc1Cl)C(=O)N1CCC(c2ccccc2OCCN2CCCC2)CC1)N1CCC(F)(F)C1` [Example 110] the same measures were 4.4 nM and 0%.
In the same order, the values of `CN(C)[C@H]1CCN(C(=O)N[C@H](Cc2ccc(Cl)cc2Cl)C(=O)N2CCC(c3ccccc3OCCN3CCCC3)CC2)C1` [Example 113] are 3 nM and 0%.

The IC50 is the concentration needed to halve the response being measured.
